Key:
[1] = system: PBCEC; details: cited from earlier work
[2] = system: PBCEC monolayer; experiment: Lucifer yellow permeability through PBCEC monolayer; type: in vitro ADME, porcine
Experimental: Before starting each experiment, the TEER values and the electrical capacitance of all cell layers were measured via cellular impedance spectroscopy (cellZscope®, nanoAnalytics, Münster, Germany). […] TEER values relate to the constitution of the tight junctions limiting paracellular transfer of compounds. In addition to the TEER, electrical capacitances (CCl) were monitored for 48 h. Cellular phospholipid bilayers act like an electrical capacitor and also contribute to the cellular impedance. Changes of the CCl value give information about the integrity of the cell monolayer. In this experiment, a parallel set up was applied. For each treatment, one triplicate of filters was monitored via cellular impedance spectroscopy over the course of 48 h using a cellZscope® device–here, the basolateral compartment was prepared with 1650 μL serum free medium and the volume in the apical compartment was filled to 760 μL (ratio 1:2.17). Another triplicate for the same incubation conditions was kept in Transwell® filter cell culture multiple well plates (12 well format) over the course of 48 h. In the multiple well plates the ratio between the apical and the basolateral compartment was 1:3, therefore the starting volume in the apical compartment is 500 μL and 1500 μL in the basolateral compartment. Here, samples for quantitation of transfer of enniatins across the barrier were drawn after 1, 2.5, 6.5, 18, 24, 28, 42 and 48 hours in this given ratio i.e. 30 μL apical and 90 μL basolateral. After 48 h, the final TEER values of the filters from the multiple well plate were measured to ensure the stability of the cell layer throughout the experiment. To double check the integrity of the barrier, lucifer yellow (LY, 50 μM), as a paracellular transfer marker, was applied. The amount of LY found in the basolateral compartment after 1 h was measured at λex = 430 nm and λ em = 540 nm.
After completion of each transport experiment, both active and passive, lucifer yellow (LY) was applied in 50 μM concentration in the apical compartments. Samples were drawn after 1 h and the amount of LY in the basolateral compartment was quantitated via external calibration. The permeability coefficients for LY through cells treated with the solvent control (ACN 0.1% and 0.02%) and through cells treated with the test compounds for the past 48 h were calculated (Table 2). The permeability coefficients range in the same order of magnitude for test substance treated cells and cells incubated with solvent, which is considerably lower than the permeability coefficients derived for ENN B and ENN B1 and indicates an intact and tight monolayer with low paracellular transfer of compounds.

Molecule | Papp [1] [×10⁻⁶ cm/s] | Permeability coefficient of LY ([2]; after 48 h treatment with 200 nM ENN B1 in both compartments (active)) | Permeability coefficient of LY ([2]; after 48 h treatment with 200 nM ENN B in both compartments (active)) | Permeability coefficient of LY ([2]; after 48 h treatment with 1 μM ENN B1 apically (passive)) | Permeability coefficient of LY ([2]; after 48 h treatment with 1 μM ENN B apically (passive)) | Permeability coefficient of LY ([2]; solvent control ACN 0.02%) | Permeability coefficient of LY ([2]; solvent control ACN 0.1%)
Cn1c(=O)c2c(ncn2C)n(C)c1=O [caffeine] | 15.5 |  |  |  |  |  | 
lucifer yellow [LY] |  | 0.9 10^−6 cm/s | 0.7 10^−6 cm/s | 2.2 10^−6 cm/s | 1.9 10^−6 cm/s | 0.2 10^−6 cm/s | 3.2 10^−6 cm/s
